Measurements published in patent publication US20090203661A1, “Betulinic acid, derivatives and analogs thereof and uses therefor” (priority 2006, published 2009).

Assays:
[1] = tested on: Miapaca-2 pancreatic cancer cells; assay: Western blot of Sp proteins in Miapaca-2 cells; type: cell-based; details: Miapaca-2, 24 hr
Protocol: RKO colon cancer cells were treated with BA/CN-BA for 24 hr (FIG. 15A) or 48 hr (FIG. 15B) and Miapaca-2 pancreatic cancer cells were treated with BA/CN-BA for 24 hr (FIG. 15C). Whole cell lysates were examined by Western blot analysis.

Panc28 cells = assay: Apoptosis (PARP cleavage, Western blot) in Panc28 cells; type: cell-based, human; details: Panc28, 24 hr
Protocol: (§1) Induction of KLF4 in HT-29 (FIG. 12A) and SW480 (FIG. 12B) cells. Cells were treated with different concentrations of CDODA isomers or T007 alone or in combination, and KLF4 mRNA levels were determined by real time PCR. […] KLF4 mRNA levels were not induced in SW480 cells by BA derivatives. FIGS. 12C-12D show induction of apoptosis. Panc28 (FIG. 12C) and SW480 (FIG. 12D) cells were treated for 24 hr with betulinic acid and related compounds and whole cell lysates were examined by Western blot analysis.
(§2) SW480, HT-29, HCT-15 and Panc-28 (3×10^5) colon cancer cells were seeded in 6-well tissue culture plates in DMEM/Ham's F-12 medium containing 2.5% charcoal-stripped FBS. Protein is extracted from the cells treated either with vehicle or indicated compounds suspended for 24 hr except for caveolin-1 protein which was done for 72 hr. Samples were extracted in high salt buffer [50 mmol/L HEPES, 500 mmol/L NaCl, 1.5 mmol/L MgCl2, 1 mmol/L EGTA, 10% glycerol, and 1% Triton X-100 (pH 7.5), and 5 μL/mL protease inhibitor cocktail (Sigma-Aldrich)]. Samples were incubated at 100° C. for 2 min, separated on either 10% or 12% SDS-PAGE gels and then transferred to polyvinylidene difluoride membrane (PVDF; Bio-Rad, Hercules, Calif.). […]

SW480 cells = assay: Apoptosis (PARP cleavage, Western blot) in SW480 cells; type: cell-based, human; details: SW480, 24 hr
Protocol: as §1, §2

[2] = tested on: LNCaP prostate cancer cells; assay: Cell proliferation (cell counting), LNCaP prostate cancer cells; type: cell-based; details: Homo sapiens, 144 h, 6 days, read-out: 6-day IC50 values for growth inhibition
Protocol: (§3) Human carcinoma cell lines LNCaP (prostate) and SK-MEL2 (melanoma) were obtained from American Type Culture Collection (Manassas, Va.). Cell lines were maintained in RPMI 1640 (Sigma) supplemented with 0.22% sodium bicarbonate, 0.011% sodium pyruvate, 0.45% glucose, 0.24% HEPES, 10% FBS, and 10 mL/L of 100× Antibiotic Antimycotic solution (Sigma). Cells were maintained at 37° C. in the presence of 5% CO2.
(§4) Prostate and melanoma cancer cells (2×10^4 per well) were plated in 12-well plates and allowed to attach for 24 hr. The medium was then changed to DMEM:Ham's F-12 medium containing 2.5% charcoal-stripped FBS and either vehicle (DMSO) or different concentrations of the compound were added. […] Each experiment was done in triplicate and results are expressed as means±SE for each set of experiments.

SK-MEL2 melanoma cells = assay: Cell proliferation (cell counting), SK-MEL2 melanoma cells; type: cell-based; details: Homo sapiens, SK-MEL-2, 144 h; SK-MEL2, 6 days; read-out: 6-day IC50 values for growth inhibition
Protocol: as §3, §4

Panc-28 cells = assay: Cell proliferation assay, Panc-28 cells; type: cell-based; details: Homo sapiens, read-out: IC50 values, inhibition of growth
Protocol: SW480, HT-29 and HCT-15 human colon cancer cells were provided by Dr. Stan Hamilton (M. D. Anderson Cancer Center (Houston, Tex.). Panc-28 human pancreatic cancer cells and 3T3-L1 pre-adipocytes were obtained from American Type Culture Collection (Manassas, Va.). SW480, HT-29 and Panc-28 cells were maintained in Dulbecco's modified/Ham's F-12 (Sigma-Aldrich, St Louis, Mo.) with phenol red supplemented with 0.22% sodium bicarbonate, 0.011% sodium pyruvate, 5% fetal bovine serum, and 10 mL/L 100× antibiotic antimycotic solution (Sigma). HCT-15 cells were maintained in RPMI 1640 (Sigma) supplemented with 0.22% sodium bicarbonate, 0.011% sodium pyruvate, 0.45% glucose, 0.24% HEPES, 10% fetal bovine serum, and 10 mL/L of 100× antibiotic antimycotic solution (Sigma). Cells were maintained at 37° C. in the presence of 5% CO2.
This assay is performed in 12-well tissue culture plates at the concentration of 2×10^4 cells per well, using DMEM/Ham's F-12 media containing 2.5% charcoal stripped FBS. The cells were counted on the initial day using a Z1 cell counter (Beckman Coulter, Fullerton, Calif.) and then were treated either with vehicle (DMSO) or the indicated triterpenoid compounds, each sample in triplicate. Every 48 hr, fresh medium was added along with the indicated compounds. […] The results are expressed as means±S.E for each set of triplicate.

LNCaP cells = assay: Western blot analysis of protein expression in LNCaP cells; type: cell-based, Human
Protocol: as §3
An equal amount of cell lysate (60 μg/well) was separated by 7.5% to 12% SDS-PAGE, which was followed by immunoblotting onto polyvinylidene difluoride (Bio-Rad, Hercules, Calif.). After blocking in TBST-Blotto (10 mmol/L Tris-HCl, 150 mmol/L NaCl (pH 8.0), 0.05% Triton X-100, 5% nonfat dry milk) for 30 min, the membranes were incubated with primary antibodies overnight at 4° C. and then with horseradish peroxidase-conjugated secondary antibody for 2 hr at room temperature. Proteins were visualized using the chemiluminescence substrate (Perkin-Elmer Life Sciences) for 1 min and exposed to Kodak X-OMAT AR autoradiography film (Eastman Kodak, Rochester, N.Y.).

Row | SMILES | Sp protein expression [1] | caspase-dependent PARP cleavage (Panc28 cells) | caspase-dependent PARP cleavage (SW480 cells) | IC50 [2] | IC50 (SK-MEL2 melanoma cells) | IC50 (Panc-28 cells) | concentrations inducing tumor suppressor gene KLF6 (LNCaP cells) | treatment time at which lower expression of Sp proteins is first observed (LNCaP cells; 15 μM) | lowest doses at which Sp protein degradation and PARP cleavage are observed (LNCaP cells; 48 or 72 hr) | concentration inducing downregulation of Sp1, Sp3 and Sp4 proteins (LNCaP cells; 24 hr) | concentration inducing downregulation of cyclin D1 (LNCaP cells; 24 hr exposure)
1 | CC(C)C1CCC2(C(=O)O)CCC3(C)C(CCC4C5(C)C=C(C#N)C(=O)C(C)(C)C5CCC43C)C12 (centres unmarked) [CN-BA] | decrease Sp protein expression | induced caspase-dependent PARP cleavage | induced caspase-dependent PARP cleavage | – | – | – | – | – | – | – | –
2 | C=C(C)[C@@H]1CC[C@]2(C(=O)O)CC[C@]3(C)[C@H](CC[C@@H]4[C@@]5(C)CC[C@H](O)C(C)(C)[C@@H]5CC[C@]43C)[C@@H]12 [betulinic acid, Betulinic acid] | – | – | – | 1 to 5 µM | 5 to 10 µM | 1 to 5 µM | 10 to 15 µM | 12 h | 1 to 2.5 µM | 5 to 10 µM | ≥ 10 µM
